# Test results published in ChEMBL document CHEMBL3885881, “DrugMatrix”.
# Species: Rattus norvegicus
# Test: DrugMatrix - Regimen: Daily Repeat
# Format: toxicity, organism-based, Sprague-Dawley
# Set-up: regimen Daily Repeat, gender Male, age 6-8 weeks
# Settings: in vivo, po, route oral GAVAGE, vehicle .5 % CMC; for BASOPHIL / EOSINOPHIL / ERYTHROCYTE COUNT / HEMATOCRIT / HEMOGLOBIN / LEUKOCYTE COUNT / LYMPHOCYTE / MEAN CORPUSCULAR HEMOGLOBIN / MEAN CORPUSCULAR HEMOGLOBIN CONCENTRATION / MEAN CORPUSCULAR VOLUME / MONOCYTE / NEUTROPHIL / PLATELET COUNT: tissue Blood; for ALANINE AMINOTRANSFERASE / ALBUMIN / ALKALINE PHOSPHATASE / ASPARTATE AMINOTRANSFERASE / BLOOD UREA NITROGEN / CHLORIDE / CHOLESTEROL / CREATINE PHOSPHOKINASE / CREATININE / GLUCOSE / PHOSPHORUS / POTASSIUM / SODIUM / TOTAL BILIRUBIN / TOTAL PROTEIN: tissue Plasma
# [1] = 0 mg/kg, 72 h, dose level Control, time 3 day
# [2] = 0 mg/kg, 120 h, dose level Control, time 5 day
# [3] = 0.09 mg/kg, 72 h, dose level Low, time 3 day
# [4] = 0.09 mg/kg, 120 h, dose level Low, time 5 day
# [5] = 0.9 mg/kg, 72 h, dose level High, time 3 day
# [6] = 0.9 mg/kg, 120 h, dose level High, time 5 day
smiles,measurement,setting,value
CCN1C[C@]2(COC)[C@H](O)C[C@H](OC)[C@@]34[C@@H]5C[C@@]6(O)[C@H](OC(=O)c7ccccc7)[C@@H]5[C@@](OC(C)=O)([C@@H]([C@H](OC)[C@H]23)[C@@H]14)[C@@H](O)[C@@H]6OC [ACONITINE],BASOPHIL,[1],0.68%
same,EOSINOPHIL,[1],0.46%
same,ERYTHROCYTE COUNT,[1],7.15 x10E6/uL
same,HEMATOCRIT,[1],45.44%
same,HEMOGLOBIN,[1],14.1 G/DL
same,LEUKOCYTE COUNT,[1],9.78 x10E3/uL
same,LYMPHOCYTE,[1],84.44%
same,MEAN CORPUSCULAR HEMOGLOBIN,[1],19.72 pg
same,MEAN CORPUSCULAR HEMOGLOBIN CONCENTRATION,[1],31 G/DL
same,MEAN CORPUSCULAR VOLUME,[1],63.66 fL
same,MONOCYTE,[1],2.14%
same,NEUTROPHIL,[1],11.16%
same,PLATELET COUNT,[1],1378.2 x10E3/uL
same,ALANINE AMINOTRANSFERASE,[1],42.33 u/L
same,ALBUMIN,[1],3.8 G/DL
same,ALKALINE PHOSPHATASE,[1],388.17 u/L
same,ASPARTATE AMINOTRANSFERASE,[1],68 u/L
same,BLOOD UREA NITROGEN,[1],16.17 mg/dL
same,CHLORIDE,[1],96.67 MEQ/L
same,CHOLESTEROL,[1],71 mg/dL
same,CREATINE PHOSPHOKINASE,[1],156.17 u/L
same,CREATININE,[1],0.57 mg/dL
same,GLUCOSE,[1],193.67 mg/dL
same,PHOSPHORUS,[1],11.43 mg/dL
same,POTASSIUM,[1],7 MEQ/L
same,SODIUM,[1],140.33 MEQ/L
same,TOTAL BILIRUBIN,[1],0.48 mg/dL
same,TOTAL PROTEIN,[1],6.8 G/DL
same,BASOPHIL,[2],1.47%
same,EOSINOPHIL,[2],1%
same,ERYTHROCYTE COUNT,[2],7.12 x10E6/uL
same,HEMATOCRIT,[2],45.47%
same,HEMOGLOBIN,[2],14.1 G/DL
same,LEUKOCYTE COUNT,[2],11.38 x10E3/uL
same,LYMPHOCYTE,[2],82.57%
same,MEAN CORPUSCULAR HEMOGLOBIN,[2],19.82 pg
same,MEAN CORPUSCULAR HEMOGLOBIN CONCENTRATION,[2],31.02 G/DL
same,MEAN CORPUSCULAR VOLUME,[2],63.88 fL
same,MONOCYTE,[2],2.2%
same,NEUTROPHIL,[2],11.97%
same,PLATELET COUNT,[2],1267 x10E3/uL
same,ALANINE AMINOTRANSFERASE,[2],38 u/L
same,ALBUMIN,[2],3.72 G/DL
same,ALKALINE PHOSPHATASE,[2],391 u/L
same,ASPARTATE AMINOTRANSFERASE,[2],65.83 u/L
same,BLOOD UREA NITROGEN,[2],14.17 mg/dL
same,CHLORIDE,[2],107.67 MEQ/L
same,CHOLESTEROL,[2],61 mg/dL
same,CREATINE PHOSPHOKINASE,[2],148.33 u/L
same,CREATININE,[2],0.57 mg/dL
same,GLUCOSE,[2],177.17 mg/dL
same,PHOSPHORUS,[2],12.07 mg/dL
same,POTASSIUM,[2],7.2 MEQ/L
same,SODIUM,[2],151.5 MEQ/L
same,TOTAL BILIRUBIN,[2],0.58 mg/dL
same,TOTAL PROTEIN,[2],6.72 G/DL
same,BASOPHIL,[3],0.43%
same,EOSINOPHIL,[3],0.4%
same,ERYTHROCYTE COUNT,[3],7.13 x10E6/uL
same,HEMATOCRIT,[3],45.67%
same,HEMOGLOBIN,[3],14.3 G/DL
same,LEUKOCYTE COUNT,[3],11.21 x10E3/uL
same,LYMPHOCYTE,[3],84.83%
same,MEAN CORPUSCULAR HEMOGLOBIN,[3],20.07 pg
same,MEAN CORPUSCULAR HEMOGLOBIN CONCENTRATION,[3],31.3 G/DL
same,MEAN CORPUSCULAR VOLUME,[3],64.07 fL
same,MONOCYTE,[3],2.23%
same,NEUTROPHIL,[3],11.1%
same,PLATELET COUNT,[3],1445.33 x10E3/uL
same,ALANINE AMINOTRANSFERASE,[3],31.33 u/L
same,ALBUMIN,[3],3.93 G/DL
same,ALKALINE PHOSPHATASE,[3],342 u/L
same,ASPARTATE AMINOTRANSFERASE,[3],61.33 u/L
same,BLOOD UREA NITROGEN,[3],14.33 mg/dL
same,CHLORIDE,[3],96.67 MEQ/L
same,CHOLESTEROL,[3],69.33 mg/dL
same,CREATINE PHOSPHOKINASE,[3],136.67 u/L
same,CREATININE,[3],0.57 mg/dL
same,GLUCOSE,[3],209 mg/dL
same,PHOSPHORUS,[3],12.67 mg/dL
same,POTASSIUM,[3],6.4 MEQ/L
same,SODIUM,[3],140.67 MEQ/L
same,TOTAL BILIRUBIN,[3],0.4 mg/dL
same,TOTAL PROTEIN,[3],7.1 G/DL
same,BASOPHIL,[4],0.73%
same,EOSINOPHIL,[4],0.3%
same,ERYTHROCYTE COUNT,[4],7.49 x10E6/uL
same,HEMATOCRIT,[4],47.87%
same,HEMOGLOBIN,[4],14.97 G/DL
same,LEUKOCYTE COUNT,[4],9.72 x10E3/uL
same,LYMPHOCYTE,[4],82.5%
same,MEAN CORPUSCULAR HEMOGLOBIN,[4],20.07 pg
same,MEAN CORPUSCULAR HEMOGLOBIN CONCENTRATION,[4],31.37 G/DL
same,MEAN CORPUSCULAR VOLUME,[4],63.9 fL
same,MONOCYTE,[4],2%
same,NEUTROPHIL,[4],13.77%
same,PLATELET COUNT,[4],1482.33 x10E3/uL
same,ALANINE AMINOTRANSFERASE,[4],38.67 u/L
same,ALBUMIN,[4],3.83 G/DL
same,ALKALINE PHOSPHATASE,[4],409.67 u/L
same,ASPARTATE AMINOTRANSFERASE,[4],66.33 u/L
same,BLOOD UREA NITROGEN,[4],13.33 mg/dL
same,CHLORIDE,[4],107 MEQ/L
same,CHOLESTEROL,[4],62.67 mg/dL
same,CREATINE PHOSPHOKINASE,[4],135.67 u/L
same,CREATININE,[4],0.67 mg/dL
same,GLUCOSE,[4],154.33 mg/dL
same,PHOSPHORUS,[4],12.77 mg/dL
same,POTASSIUM,[4],7.43 MEQ/L
same,SODIUM,[4],151.33 MEQ/L
same,TOTAL BILIRUBIN,[4],0.5 mg/dL
same,TOTAL PROTEIN,[4],6.93 G/DL
same,BASOPHIL,[5],0.57%
same,EOSINOPHIL,[5],0.37%
same,ERYTHROCYTE COUNT,[5],6.91 x10E6/uL
same,HEMATOCRIT,[5],44.07%
same,HEMOGLOBIN,[5],13.83 G/DL
same,LEUKOCYTE COUNT,[5],11.28 x10E3/uL
same,LYMPHOCYTE,[5],85.87%
same,MEAN CORPUSCULAR HEMOGLOBIN,[5],20.03 pg
same,MEAN CORPUSCULAR HEMOGLOBIN CONCENTRATION,[5],31.4 G/DL
same,MEAN CORPUSCULAR VOLUME,[5],63.73 fL
same,MONOCYTE,[5],1.8%
same,NEUTROPHIL,[5],10.03%
same,PLATELET COUNT,[5],1654.67 x10E3/uL
same,ALANINE AMINOTRANSFERASE,[5],36 u/L
same,ALBUMIN,[5],3.73 G/DL
same,ALKALINE PHOSPHATASE,[5],364.67 u/L
same,ASPARTATE AMINOTRANSFERASE,[5],63.33 u/L
same,BLOOD UREA NITROGEN,[5],14 mg/dL
same,CHLORIDE,[5],97.33 MEQ/L
same,CHOLESTEROL,[5],62.67 mg/dL
same,CREATINE PHOSPHOKINASE,[5],126.33 u/L
same,CREATININE,[5],0.5 mg/dL
same,GLUCOSE,[5],187 mg/dL
same,PHOSPHORUS,[5],11.57 mg/dL
same,POTASSIUM,[5],6.97 MEQ/L
same,SODIUM,[5],138.67 MEQ/L
same,TOTAL BILIRUBIN,[5],0.4 mg/dL
same,TOTAL PROTEIN,[5],6.6 G/DL
same,BASOPHIL,[6],0.47%
same,EOSINOPHIL,[6],0.3%
same,ERYTHROCYTE COUNT,[6],7.11 x10E6/uL
same,HEMATOCRIT,[6],44.93%
same,HEMOGLOBIN,[6],13.73 G/DL
same,LEUKOCYTE COUNT,[6],9.26 x10E3/uL
same,LYMPHOCYTE,[6],88.1%
same,MEAN CORPUSCULAR HEMOGLOBIN,[6],19.37 pg
same,MEAN CORPUSCULAR HEMOGLOBIN CONCENTRATION,[6],30.6 G/DL
same,MEAN CORPUSCULAR VOLUME,[6],63.23 fL
same,MONOCYTE,[6],1.83%
same,NEUTROPHIL,[6],9.33%
same,PLATELET COUNT,[6],1288 x10E3/uL
same,ALANINE AMINOTRANSFERASE,[6],40.33 u/L
same,ALBUMIN,[6],3.67 G/DL
same,ALKALINE PHOSPHATASE,[6],314 u/L
same,ASPARTATE AMINOTRANSFERASE,[6],66 u/L
same,BLOOD UREA NITROGEN,[6],12.33 mg/dL
same,CHLORIDE,[6],108.33 MEQ/L
same,CHOLESTEROL,[6],66 mg/dL
same,CREATINE PHOSPHOKINASE,[6],136 u/L
same,CREATININE,[6],0.63 mg/dL
same,GLUCOSE,[6],161 mg/dL
same,PHOSPHORUS,[6],12.37 mg/dL
same,POTASSIUM,[6],7.3 MEQ/L
same,SODIUM,[6],151.67 MEQ/L
same,TOTAL BILIRUBIN,[6],0.33 mg/dL
same,TOTAL PROTEIN,[6],6.57 G/DL
